# Laboratory results taken from patent US20260021147A1, “COMPOSITIONS AND METHODS FOR TREATING INFLAMMATORY DISEASE” (The Regents of the University of Michigan, priority 2022, published 2026).
# Entries after “also recorded” stand apart in the source; their conditions may differ.
# Key:
# [1] = test system: Bacteroides thetaiotaomicron (MDA-JAX BT001); assay: MIC of meropenem with MIC test strips; assay type: cell-based; settings: mouse-derived BT
# Description: Mouse-derived BT (MDA-JAX BT001), Enterococcus faecalis (MDA-JAX EF001) and Clostridium disporicum (MDA-JAX CD001), Clostridium saudiense (MDA-JAX CS001), and Lachnospiraceae unclassified (MDA-JAX LS001) were isolated and cultured from mouse stool samples suspended in 1 ml of chilled 20% anaerobic glycerol in a Whitley anaerobic chamber (10% H2, 5% CO2 and 85% N2). Human-derived BT (ATCC 29148) was purchased from ATCC. Bacterial number was quantified using a Nexcelom Cellometer cell counter with SYTO™ BC dye and propidium iodide. For measuring MICs against meropenem, bacteria were cultured on BYE plates including 5% sterilized rumen fluid (Fisher Scientific) with MIC test strips (Liofilchem™ MTS™ Meropenem [MRP] 0.016-256 μg/mL, Fisher Scientific). Bacterial growth experiments were performed in a bacterial liquid media, BYEM10, composed of a hybrid of BHI and M10 supplemented with yeast extract (Table 4). Bacteria were cultured up to 48 hours at a starting concentration of 1×10^6 bacteria/ml in BYEM10 broth (pH 7.2) with and without 5 mg/ml of porcine gastric mucin (M1778, Sigma-Aldrich) with or without 0.5 mg/ml of D-(+)-xylose (X3877), D-(+)-mannose (M8574, Sigma-Aldrich) or D-(+)-glucose (G8270). Optical densities (OD600 nm) of bacterial cultures were measured with a BioTek EPOCH 2 plate reader.
# [2] = Pharmacokinetics of meropenem in cecal contents by LC-MS; assay type: in vivo, C57BL/6 mice; settings: 10 mg subcutaneous injection; 4, 8, 24, 48 and 96 hours
# Description: C57BL/6 mice were treated with 10 mg of meropenem by subcutaneously injection. Cecal contents were collected prior to, 4, 8, 24, 48, and 96 hours after meropenem injection. To determine the relative abundance of meropenem in mouse cecum samples, extracts were prepared and analyzed with a Thermo Scientific TSQ Quantiva triple quadruple mass spectrometer coupled with a Dionex UltiMate 3000 HPLC system. Approximately 600 mgs of mouse cecal contents were homogenized with a Precellys Tissue Homogenizer. Metabolites were extracted using 100% acetonitrile. The tissue lysates were vortexed, centrifuged at 17,000 g for 5 min 5 at 4° C., and organic layers were transferred to clean tubes, followed by evaporation to dryness under nitrogen. Dried extracts were reconstituted in 50/50 (v/v) water/Acetonitrile, and 5 μL was injected for analysis by LC-MS. The mobile phase A is 100% water and mobile phase B is 0.1% Formic Acid in acetonitrile. Separation of meropenem was achieved on an Agilent SB-C18, 1.8 μm, 100×3 mm column. The flow rate was 250 μL/min at 35° C., and the gradient elution program was: 0-1 min, 5% MPB; 1-5 min, 5-50% MPB; 5-6 min, 50-95% MPB; 6-10 min, 95% MPB; 10-10.1 min, 95-5% MPB. The total run time was 15 min. The mass spectrometer was operated in the MRM positive ion electrospray mode with the transition m/z 384.1->68.0. […]
# intestinal microbiota [3] = assay: Quantification of fecal bacterial density by 16S rRNA gene qPCR; assay type: in vivo, mice; settings: 0.625 g/L meropenem in drinking water
# Description: Genomic DNA was isolated from stool as described above. qPCR was performed as previously described (Yang et al., 2015). In brief, 16S rRNA gene sequences were amplified from total fecal DNA using the primers 926F (5′-[…]-3′) and 1062R (5′-[…]-3′). Real-time PCR was carried out in 96-well optical plates on QuantStudio Flex 6 RT PCR (Thermo Fisher) and KAPA SYBR FAST Master Mix (Roche). The PCR conditions included one initial denaturing step of 10 min at 95° C. and 40 cycles of 95° C. for 20 sec and 60° C. for 1 min. Melting-curve analysis was performed after amplification. To determine bacterial density, a plasmid with a 16S rRNA gene of a murine Blautia isolate was generated in the pCR4 backbone and used as a standard.
# [4] = test system: allogeneic mice (B6D2F1 recipients of B6 donor cells); assay: Murine GvHD model (allo-HSCT): survival and GvHD histology; assay type: in vivo
# Description: In a murine model with a mucin-deficient mutate strain of BT, piperacillin/tazobactam was given at a concentration of 3.2 g/L in combination with vancomycin and metronidazole dosed 1.5 mg daily by oral gavage from days −16 to −12 relative to transplant.
# D-(+)-xylose (X3877, Sigma-Aldrich) or D-(+)-glucose (G8270, Sigma-Aldrich) was dissolved in phosphate buffer pH 8.0 with meropenem or in water without meropenem and given at a concentration of 0.5% from days 13 to 28 after allo-HSCT.
# Mice were transplanted as previously described (Hayase et al., 2017).
# (§1) Pathology scores were quantified by a blinded pathologist. […] Sections were imaged using an Aperio AT2.
# intestinal microbiota [5] = assay: 16S rRNA sequencing of fecal and mucosal microbiome in mice; assay type: in vivo
# Description: Fecal samples which were collected from patients and mice and colonic mucosal samples, which were collected from mice were weighed before DNA isolation. […] The quality and quantity of the barcoded amplicons were assessed on an Agilent 4200 TapeStation system (Agilent) and Qubit Fluorometer (Thermo Fisher Scientific), and libraries were prepared after pooling at equimolar ratios. The final libraries were purified using QIAquick gel extraction kit (28706X4, Qiagen) and sequenced with a 2×250 base pair paired-end protocol on the Illumina MiSeq platform.
# For differential abundance analysis, abundances of sequences belonging to taxonomical groups were included for analysis using the Mann-Whitney U test and adjusted for multiple comparisons using the method of Benjamini-Hochberg. Paired samples were analyzed using the Wilcoxon signed rank test with adjustment for multiple comparisons.
# colonic mucus layer = assay: Colonic mucus thickness by PAS staining; assay type: in vivo, mice; settings: allogeneic mice, day 18
# From the text: as §1
# MLNs = assay: Microbiologic analysis of bacterial translocation to mesenteric lymph nodes; assay type: in vivo; settings: allogeneic mice, day 18
# Description: Mesenteric lymph nodes (MLNs) were harvested from mice and homogenized in PBS and cultured anaerobically on BHI plates containing yeast extract and 5% sterilized rumen fluid (Fisher Scientific) and Columbia blood agar plates (BD) for 4 days at 37° C. Colony-forming units (CFUs) were counted and adjusted per organ. Bacteria were identified by MALDI Biotyper.
# [6] = Carbohydrates analysis of mouse feces by IC-MS; assay type: in vivo; settings: allogeneic mice, day 18
# Description: To determine the relative abundance of carbohydrates in mouse feces samples, extracts were prepared and analyzed by ultra-HRMS. Fecal pellets were homogenized with a Precellys Tissue Homogenizer. Metabolites were extracted using 1 mL ice-cold 80/20 (v/v) methanol/water. Extracts were centrifuged at 17,000 g for 5 min at 4° C., and supernatants were transferred to clean tubes, followed by evaporation to dryness under nitrogen. Dried extracts were reconstituted in deionized water, and 5 μL was injected for analysis by IC-MS. IC mobile phase A (MPA; weak) was water, and mobile phase B (MPB; strong) was water containing 100 mM KOH. A Thermo Scientific Dionex ICS-5000+ system included a Thermo CarboPac PA-20-Fast column (4 μm particle size, 100×2 mm) with column compartment kept at 30° C. The autosampler tray was chilled to 4° C. The mobile phase flow rate was 200 μL/min, and the gradient elution program was: 0-0.5 min, 1% MPB; 0.5-10 min, 1-5% MPB; 10-15 min, 5-95% MPB; 15-20 min, 95% MPB; 20.5-25, 95-1% MPB. The total run time was 25 min. To assist the desolvation for better sensitivity, methanol was delivered by an external pump and combined with the eluent via a low dead volume mixing tee. Data were acquired using a Thermo Orbitrap Fusion Tribrid Mass Spectrometer under ESI negative ionization mode at a resolution of 240,000. […]
smiles,measurement,setting,value
C[C@@H](O)[C@H]1C(=O)N2C(C(=O)O)=C(S[C@@H]3CN[C@H](C(=O)N(C)C)C3)[C@H](C)[C@H]12 [meropenem],MIC,[1],4 µg/mL
same,meropenem concentrations in the cecal lumen,[2],"increase in meropenem concentrations in the cecum at 4 hours after injection, which rapidly declined afterwards"
same,reduction in fecal bacterial density,intestinal microbiota [3],one-log reduction
same,GvHD histological scores in the colon,"[4]; meropenem days 3 to 15, day 18, vs control allogeneic mice",significantly higher GvHD histological scores in the colon
same,overall survival,"[4]; meropenem in drinking water days 3 to 15, vs control allogeneic mice",significantly worsened survival
same,abundances of Bacteroides and several other genera,"intestinal microbiota [5]; allogeneic mice, day 21",significantly higher abundances
same,relative abundance of Clostridia,"intestinal microbiota [5]; meropenem-treated allogeneic mice, from day 7 until 6 days after stopping",depleted; also recorded: significantly decreased
same,compositional differences between luminal and mucosal samples,"intestinal microbiota [5]; treated allogeneic mice, PERMANOVA testing",loss of this distinction
same,colonic mucus layer,colonic mucus layer,significantly thinned colonic mucus layer; also recorded: thinning of the colonic mucus layer
same,bacterial loads in MLNs,MLNs,Higher bacterial loads
same,levels of luminal monosaccharides in the colon,[6],significantly lower concentrations of arabinose and xylose; also recorded: decreased levels of xylose
